Consider 2 compounds from patent publication US4059692A, “Treating impaired consciousness with glutamyl-L-histidyl-L-prolinamide” (Takeda Chemical Industries, Ltd., priority 1975, dated 1977).

Counter-ions that a name gives are not always drawn.

For the data set, the system named is human patient with impaired consciousness due to functional or organic damage of the brain. As to the kind of experiment: Clinical administration of TRH tartrate to human patients with impaired consciousness (case reports 1-8). The format is in vivo. The settings on record: for motor/behavioural recovery: 200 μg free TRH i.m. daily. From the text: The method of the present invention is applicable to human patients with impaired consciousness due to functional or organic damage to the brain, such as cranial trauma, brain surgery, cerebrovascular disorder, brain tumors and the like.
According to the present invention, TRH may be employed as the free base or in the form of a physiologically acceptable salt such as an acid addition salt e.g. a mineral acid salt (hydrochloride, sulphate, etc.) or an organic acid salt (acetate, tartrate, etc.). TRH tartrate is especially convenient for the administration. TRH or its salts are generally administered by the parenteral routes such as intravenous or intramuscular routes to the patients. The therapeutic dosage depends upon the route and upon the severity of impaired consciousness in each patient, and it may generally be chosen from within the range of from about 100 to about 5,000 μg. in terms of free TRH per adult human patient per day, more particularly from about 500 to about 5,000 μg. in terms of free TRH per adult human patient per day, when parenterally e.g. intravenously or intramuscularly administered. In case of those patients having swallowing capacity TRH or its salts may be orally administered. In this case, the dosage may be of course chosen from within the abovementioned range, but it may be increased over the said range, for example, up to about 150 mg. in terms of free TRH per adult human patient per day.
Child: Postoperative state of haematoma of right frontal lobe caused by cranial trauma.
Before administration, the patient was able to respond to only painful stimuli with a verbal expression of pain, otherwise being unconcious with a slight palpebral opening. Such conscious state lasted without modification for a further 10 days. The daily intramuscular injection of 292 μg. of TRH tartrate (dissolved in 0.8 ml of a sterile physiological saline; 200 μg. in terms of free TRH) successively for 10 days.
person: Postoperative state of metastatic brain tumor on right frontal and pariental lobes.
Craniotomy performed for the reduction of the intracranial pressure was followed by the gradual deterioration of consciousness. Therefore, TRH tartrate in the daily dose of 730 μg. (dissolved in 20 ml of 20% glucose; 500 μg. in terms of free TRH) was administered by intravenous drip infusion of 13 days.
Child: Brain contusion due to cranial trauma.
The child suffered from bodily contusion and loss of consciousness by collision on their bicycle with a train. At the time of hospitalization, the bilateral facilitation of the knee-jerk reflex was associated with the positive Babinski's reflex bilaterally. The daily administration of 730 μg.
Person: Post-operative state of glioblastoma.
The surgical resection of glioblastoma by cranitomy was gradually followed by a worsening of the general condition associated with impaired consciousness for 3 months.
person: Traumatic protracted coma.
The patient had been thrown from a motor bike and disturbance of consciousness had become apparent immediately after the accident. There was movement of the extremities and grimacing of the face in response to pain stimulus. The disturbance of consciousness continued thereafter and the disturbance had become fixed for 2 years prior to medication with TRH. TRH tartrate in the daily dose of 7,300 μg. (dissolved in 200 ml of electrolyte solution; 5,000 μg. in terms of free TRH) was administered by intravenous drip infusion. […] They also began to answer friends vocally with "Ah", "Ah". […] The medication was terminated at the 10th day.
person: Aneurysm of left cerebral artery.
After an attack of subarachnoid hemorrhage, it was noted that they had lost accessibility with people around them and volition, and that they had been in an abstract state. This condition had lasted for 1 month. TRH tartrate in the daily dose of 3,650 μg. […]

[1] abbreviates: Case 3, 500 μg free TRH i.v. drip daily for 10 days.

`NC(=O)[C@@H]1CCCN1C(=O)[C@H](Cc1c[nH]cn1)NC(=O)[C@@H]1CCC(=O)N1` [TRH, L-pyroglutamyl-L-histidyl-L-prolinamide]: under “Case 5, 5,000 μg (free TRH) per day, case had not responded to conventional treatment”, the “impaired consciousness (overall)” value is on record as “significant improvement of impaired consciousness”.
As to `NC(=O)[C@@H]1CCCN1C(=O)[C@H](Cc1cnc[nH]1)NC(=O)[C@@H]1CCC(=O)N1` [TRH tartrate], the “state of consciousness (response to interview)” value (Case 1: postoperative haematoma of right frontal lobe, 292 μg TRH tartrate (200 μg free TRH) intramuscular daily for 10 days, 5th day of treatment) is on record as “prompt verbal reply with a smile to the interview by the doctor”. In addition, the motor/behavioural recovery entry by setting is: (Case 1, 7th day) “able to ride and sit by themself on a wheel-chair”; (Case 1, 8th day (the next day)) “able to go to a stool with support”. The “motor/behavioural recovery and conversation” value (Case 1, one day after termination of the 10-day daily administration) is “able to sit by themself on the bed and to have a conversation with others”. The conscious state result (Case 2: postoperative metastatic brain tumor, 730 μg TRH tartrate (500 μg free TRH) intravenous drip infusion daily, 13 days, 2nd day) is given as “significant improvement of the conscious state”. Also, where the note is “Case 2, 500 μg free TRH i.v. drip daily, 2nd day”, the orientation ability result was “improvement of orientation ability”. Further, the “persistence of improved conscious state” value (Case 2, after termination of the TRH treatment) is “persist for about one month after the termination of the TRH treatment”. Moreover, the “Babinski's reflex” value is, setting by setting: (Case 3: brain contusion, 730 μg TRH tartrate (500 μg free TRH) i.v. drip daily for 10 days, 2nd day) “sluggish appearance of Babinski's reflex”; (Case 3, 500 μg free TRH i.v. drip daily, 3rd day) “disappearance on the 3rd day”. Besides, under setting [1], the impaired consciousness entry is “began to be improved from the 4th day”. Further, under setting [1], the impaired orientation result is on record as “markedly improved”. For the same compound, for the setting “Case 3, after treatment”, the final outcome is recorded as “recovered without any neurological abnormality”. Besides, under “Case 3, one day after termination of the daily administration”, the motor recovery entry is reported as “able to walk”. The “palpebral opening and eyeball movement” value (Case 4: post-operative glioblastoma, 1,460 μg TRH tartrate (1,000 μg free TRH) i.v. drip daily for 10 days) is recorded as “prolonged the time-length of the palpebral opening from the 4th day”. For the same compound, the consciousness entry (Case 4, 1,000 μg free TRH i.v. drip daily for 10 days) is recorded as “remarkable improvement of the consciousness”. Besides, the “response to vocal questioning” value (Case 5: traumatic protracted coma fixed for 2 years, 7,300 μg TRH tartrate (5,000 μg free TRH) i.v. drip daily, two days after start) was “began to respond with a sound to vocal questioning and turn the eyes towards the questioner”. Moreover, the side effects result by setting is: (Case 5, 5,000 μg free TRH i.v. drip daily, 10 days treatment period) “No side effects were observed”; (Case 6, 2,500 μg free TRH i.v. drip daily for 10 days) “No noteworthy side effects were observed”; (Case 7, 6 mg free TRH orally daily for 2 weeks) “No side effects were noted”; (Case 8, 12 mg free TRH orally daily, during and after termination of medication) “No side effects have been observed”. In addition, where the note is “Case 5, 5,000 μg free TRH i.v. drip daily, from about the fifth day”, the level of consciousness result is reported as “definite improvement in the level of consciousness”. Moreover, for the setting “Case 6: aneurysm of left cerebral artery, subarachnoid hemorrhage, 3,650 μg TRH tartrate (2,500 μg free TRH) i.v. drip daily for 10 days, third day”, the abstract state result is given as “abstract state disappeared”. The state of consciousness entry (Case 6, 2,500 μg free TRH i.v. drip daily, seventh day) was “restored close to normal”. Moreover, the “behavior and spontaneous activity” value (Case 7: sequelae of head trauma, 8.76 mg TRH tartrate (6 mg free TRH) orally daily for 2 weeks, from the third day) was “normalization of behavior and spontaneous activity”. Also, the conversation with people result (Case 7, 6 mg free TRH orally daily, after 1 week) is listed as “began to actively converse with people around them”. For the same compound, the “persistence of improvement in level of consciousness” value (Case 7, after medication was terminated at 2 weeks) is recorded as “improvement in the level of consciousness was retained”. The “spontaneous activity / volition” value (Case 8: sequelae of head trauma, 17.52 mg TRH tartrate (12 mg free TRH) orally daily, after 2 weeks) was “began to actively watch television or play the pinball machine”. Moreover, where the note is “Case 8, 12 mg free TRH orally daily, after 2 weeks”, the agnosia and disorientation entry was “little change in the agnosia and disorientation”. For the same compound, for the setting “Case 8, medication terminated after 2 weeks, after 3 months”, the “condition after termination of medication” value is given as “no marked change in the condition of the patient”.
